Assay results as given in patent publication US8618096B2, “Prodrug compositions and methods for using the same in treating cancer and malaria” (The Regents of the University of California, priority 2008, dated 2013).

Assays:
[1] = system: W2 strain of P. falciparum; assay: Antimalarial activity, parasite growth in human erythrocytes (YOYO-1 flow cytometry), W2 strain; assay type: cell-based; conditions: Plasmodium falciparum, W2, Erythrocyte; 72 hr growth period, eight-point dose-response
Procedure: (§1) Cultures of 3D7 and W2 strains of P. falciparum parasites were grown in purified human erythrocytes and synchronous cultures were placed into 96-well plates containing test compounds. After a 72 hr growth period, cultures were fixed for 1 hr at room temperature in 1% paraformaldehyde and stained with 50 nM YOYO-1 for about 24 hr in the dark. Samples were analyzed on a Becton-Dickinson LSR2 fitted with a microplate reader. Uninfected erythrocytes were used to determine background autofluorescence. Parasite growth in each sample was determined relative to infected erythrocytes without test compound. “Eight-point dose-response curves were generated and EC50 values determined using GRAPHPAD PRISM® software”.

[2] = Fe(II) activation and drug release in vitro (LC/MS); assay type: physicochemical
Procedure: In a series of experiments, the compound of Example 1 (0.03 mM) was incubated with various amounts (0-100 equivalents) of a ferrous iron salt (ferrous bromide) in a 1:1 solution of acetonitrile and an aqueous buffer at ambient temperature. Either of two buffers were used in these studies: pH 5.5 sodium acetate buffer intended to mimic a lysosomal environment or pH 7.4 phosphate buffered saline. At various time points, a 10 μl sample of the incubation mixture was removed and analyzed by liquid chromatography/mass spectroscopy (LC/MS) to identify the expected products of iron-promoted degradation and drug release. A Waters Alliance/ZQ micromass LC/MS system and a 15 min method employing gradient elution with acetonitrile-water mobile phase (containing 0.1% formic acid) was employed. In the absence of ferrous iron salts, the compound of example 1 was stable for 48 hrs, showing no detectable chemical degradation by LC/MS spectroscopy. In the presence of ferrous bromide however, the compound of example 1 was rapidly (less than 1 hour) converted into the expected ketone (analogous to G, FIG. 2) resulting from iron-promoted degradation of the trioxolane ring. Also observed was a signal attributable to the released drug species, 2,5-dichloroaniline.

[3] = system: 3D7 strain of P. falciparum; assay: Antimalarial activity, parasite growth in human erythrocytes (YOYO-1 flow cytometry), 3D7 strain; assay type: cell-based; conditions: Plasmodium falciparum, 3D7, Erythrocyte; 72 hr growth period, eight-point dose-response
Procedure: as §1

[4] = system: W2 strain P. falciparum parasites; assay: Evaluation of drug release in cells: food vacuole phenotype in Giemsa-stained blood smears; assay type: cell-based, Plasmodium falciparum; conditions: 24 hrs, ring stage W2 parasites
Procedure: Cmpd 72 is the prodrug form of a parasite cysteine protease inhibitor, specifically an inhibitor of the proteases falcipain-2 and falcipain-3 from the malaria parasite Plasmodium falciparum. […] Thus, observation of the food vacuole phenotype upon treatment of cultured P. falciparum parasites with the protease inhibitor prodrug would constitute positive evidence for release of the free drug inside the parasite.
Synchronized W2 strain P. falciparum parasites (ring stage) were grown as described herein and incubated in the presence of test and control compounds for 24 hrs. Next, a blood smear was made, fixed with methanol, and stained with Giemsa, as known in the art. Parasites were then imaged at 100× magnification to identify the presence or absence of the food vacuole phenotype.

| SMILES | EC50 [1] [nM] | EC50 [3] [nM] | food vacuole phenotype (falcipain inhibition) ([4]; 1.1 uM, FIG. 3C-E) | other results |
| --- | --- | --- | --- | --- |
| O=C(CCC1(CCOC(=O)Nc2cc(Cl)ccc2Cl)OOC2(O1)C1CC3CC(C1)CC2C3)NCCN1CCOCC1 (stereo not drawn) [Cmpd 40, 2-(5,5-spiroadamantyl-3-(3-(2-morpholinoethylamino)-3-oxopropyl)-1,2,4-trioxolan-3-yl)ethyl-2,5-dichlorophenylcarbamate] | 24 | 16 | – | time of conversion into the expected ketone (iron-promoted degradation of the trioxolane ring) ([2]; 0.03 mM, in the presence of ferrous bromide, 1:1 acetonitrile and aqueous buffer, ambient temperature): less than 1 hour; stability in the absence of ferrous iron salts (no detectable chemical degradation by LC/MS) ([2]; 48 h, 0.03 mM): ≥ 48 h; release of drug species 2,5-dichloroaniline ([2]; in the presence of ferrous bromide, during the course of the experiment, LC/MS): the quantity of 2,5-dichloroaniline increased |
| CN(Cc1ccccc1)C(=O)OCCC1(CCC(=O)NCCN2CCOCC2)OOC2(O1)C1CC3CC(C1)CC2C3 (stereo not drawn) [Cmpd 47, 2-(5,5-spiroadamantyl-3-(3-(2-morpholinoethylamino)-3-oxopropyl)-1,2,4-trioxolan-3-yl)ethyl benzyl(methyl)carbamate] | 15 | 16 | – | – |
| O=C(CCC1(CCOC(=O)N(CCCNc2ccnc3cc(Cl)ccc23)Cc2ccco2)OOC2(O1)C1CC3CC(C1)CC2C3)NCCN1CCOCC1 (stereo not drawn) [Cmpd 48, 2-(5,5-spiroadamantyl-3-(3-(2-morpholinoethylamino)-3-oxopropyl)-1,2,4-trioxolan-3-yl)ethyl 3-(7-chloroquinolin-4-ylamino)propyl(furan-2-ylmethyl)carbamate] | 62 | 38 | – | – |
| CC(C)(C[C@H](NC(=O)N1CCOCC1)C(=O)N[C@H](/C=C/S(=O)(=O)c1ccccc1)CCc1ccccc1)OC(=O)OCCC1(CCC(=O)NCCCN2CCCC2=O)OOC2(O1)C1CC3CC(C1)CC2C3 (stereo partly drawn) [Cmpd 72] | – | – | does produce the falcipain-inhibited phenotype | – |
| O=C(CCC1(CCO)OOC2(O1)C1CC3CC(C1)CC2C3)NCCCN1CCCC1=O (stereo not drawn) [Cmpd 58, 3-(3-(2-hydroxyethyl)-5,5-spiroadamantyl-1,2,4-trioxolan-3-yl)-N-(3-(2-oxopyrrolidin-1-yl)propyl)propanamide] | – | – | does not produce the protease-inhibited phenotype | – |
| CC(C)(O)C[C@H](NC(=O)N1CCOCC1)C(=O)N[C@H](/C=C/S(=O)(=O)c1ccccc1)CCc1ccccc1 [N—((S)-4-hydroxy-4-methyl-1-oxo-1-((S,E)-5-phenyl-1-(phenylsulfonyl)pent-1-en-3-ylamino)pentan-2-yl)morpholine-4-carboxamide, reference compound] | – | – | swollen, dark-staining food vacuole | – |
| O=C(CCC1(CCOC(=O)N2CCN(c3ccccc3)CC2)OOC2(O1)C1CC3CC(C1)CC2C3)NCCN1CCOCC1 (stereo not drawn) [Cmpd 45, 2-(5,5-spiroadamantyl-3-(3-(2-morpholinoethylamino)-3-oxopropyl)-1,2,4-trioxolan-3-yl)ethyl 4-phenylpiperazine-1-carboxylate] | 4.9 | 9 | – | – |
| CC(C)C[C@H](NC(=O)[C@H]1O[C@@H]1C(=O)O)C(=O)NCCCCN=C(N)N [E64, reference compound] | – | – | – | food vacuole phenotype (falcipain inhibition) ([4]; 3.3 uM, FIG. 3B): swollen, dark-staining food vacuole |
